Tests used:
Experiment in all cases: Post-emergence glasshouse spray test, visual percentage phytotoxicity after 13 days
Type in all cases: in vivo
Stellaria media (STEME) = details: for STEME percentage phytotoxicity: B1; for Observed phytotoxicity STEME: B2.1.4
Protocol: (§1) Seeds of Setaria faberi (SETFA), Echinochloa crus-galli (ECHCG), Digitaria sanguinalis (DIGSA), Lolium perenne (LOLPE), Alopecurus myosuroides (ALOMY), Chenopodium album (CHEAL), Ipomoea hederacea (IPOHE), Stellaria media (STEME), Abutilon threophrasti (ABUTH), Amaranthus retroflexus (AMARE) were sown in standard sterilised soil in pots. After cultivation for 8 days under controlled conditions in a glasshouse (at 24/19° C., day/night; 16 hours light; no humidity control), the plants were sprayed at 500 l/Ha with an aqueous spray solution derived from the formulation of the technical active ingredients in a small amount of acetone and a solvent and emulsifier mixture referred to as IF50 (11.12% Emulsogen EL360™+44.44% N-methylpyrrolidone+44.44% Dowanol DPM glycol ether), to create a 50 g/l solution which was then diluted using 0.2% Genapol XO80 (CAS Number: 9043-30-5) as diluent to give the desired final dose of test compound.
(§2) Where active ingredients were applied as mixtures, aqueous spray solutions were prepared as above, containing both active ingredients.
(§3) The test plants were then grown under controlled conditions in a glasshouse (at 24/18° C., day/night; 15 hours light; 50% humidity) and watered twice daily. After 13 days, the test was evaluated visually for percentage phytotoxicity to the plants (where 100=total damage to plant; 0=no damage to plant; and NC=not captured) when compared to control untreated plants. Two to four replicates were applied for each treatment in a randomised block test design.
(§4) 22., E=X+Y−(X*Y/100), where
(§5) X=average percent phytotoxicity of herbicide A when applied at a certain rate Y=average percent phytotoxicity using herbicide B when applied at a certain rate E=the expected effect of the mixture of herbicides A and B as calculated from the Colby formula.

[1] = test system: Chenopodium album (CHEAL); details: for CHEAL percentage phytotoxicity: B1; for Observed phytotoxicity CHEAL: B2.1.6
Protocol: as §1, §2, §3, §4, §5

[2] = test system: Ipomoea hederacea (IPOHE); details: B1
Protocol: as §1, §2, §3, §4, §5

[3] = test system: Echinochloa crus-galli (ECHCG); details: for ECHCG percentage phytotoxicity: B1; for Observed phytotoxicity ECHCG: B2.1.2
Protocol: as §1, §2, §3, §4, §5

Lolium perenne (LOLPE) = details: for LOLPE percentage phytotoxicity: B1; for Observed phytotoxicity LOLPE: B2.1.1
Protocol: as §1, §2, §3, §4, §5

Setaria faberi (SETFA) = details: for SETFA percentage phytotoxicity: B1
Protocol: as §1, §2, §3, §4, §5

[4] = test system: Abutilon threophrasti (ABUTH); details: for ABUTH percentage phytotoxicity: B1; for Observed phytotoxicity ABUTH: B2.1.7
Protocol: as §1, §2, §3, §4, §5

[5] = test system: Digitaria sanguinalis (DIGSA); details: B1
Protocol: as §1, §2, §3, §4, §5

[6] = test system: Amaranthus retroflexus (AMARE); details: for AMARE percentage phytotoxicity: B1
Protocol: as §1, §2, §3, §4, §5

CN1C[C@H](c2cccc(C(F)(F)F)c2)[C@@H](C(=O)Nc2ccccc2F)C1=O [B-III]
STEME percentage phytotoxicity (Stellaria media (STEME); 3.125 g/ha post-emergence): 13% | STEME percentage phytotoxicity (Stellaria media (STEME); 6.25 g/ha post-emergence): 21% | STEME percentage phytotoxicity (Stellaria media (STEME); 12.5 g/ha post-emergence): 14% | STEME percentage phytotoxicity (Stellaria media (STEME); 25 g/ha post-emergence): 46% | STEME percentage phytotoxicity (Stellaria media (STEME); 50 g/ha post-emergence): 71% | Observed phytotoxicity STEME (Stellaria media (STEME); 6.25 g/ha post-emergence): 21% | Observed phytotoxicity STEME (Stellaria media (STEME); 12.5 g/ha post-emergence): 14% | CHEAL percentage phytotoxicity ([1]; 3.125 g/ha post-emergence): 6% | CHEAL percentage phytotoxicity ([1]; 6.25 g/ha post-emergence): 10% | CHEAL percentage phytotoxicity ([1]; 12.5 g/ha post-emergence): 14% | CHEAL percentage phytotoxicity ([1]; 25 g/ha post-emergence): 44% | CHEAL percentage phytotoxicity ([1]; 50 g/ha post-emergence): 56% | Observed phytotoxicity CHEAL ([1]; 6.25 g/ha post-emergence): 10% | Observed phytotoxicity CHEAL ([1]; 12.5 g/ha post-emergence): 14% | IPOHE percentage phytotoxicity ([2]; 3.125 g/ha post-emergence): 9% | IPOHE percentage phytotoxicity ([2]; 6.25 g/ha post-emergence): 11% | IPOHE percentage phytotoxicity ([2]; 12.5 g/ha post-emergence): 15% | IPOHE percentage phytotoxicity ([2]; 25 g/ha post-emergence): 24% | IPOHE percentage phytotoxicity ([2]; 50 g/ha post-emergence): 28% | ECHCG percentage phytotoxicity ([3]; 3.125 g/ha post-emergence): 70% | ECHCG percentage phytotoxicity ([3]; 6.25 g/ha post-emergence): 70% | ECHCG percentage phytotoxicity ([3]; 12.5 g/ha post-emergence): 73% | ECHCG percentage phytotoxicity ([3]; 25 g/ha post-emergence): 73% | ECHCG percentage phytotoxicity ([3]; 50 g/ha post-emergence): 75% | Observed phytotoxicity ECHCG ([3]; 12.5 g/ha post-emergence): 73% | Observed phytotoxicity ECHCG ([3]; 50 g/ha post-emergence): 75% | LOLPE percentage phytotoxicity (Lolium perenne (LOLPE); 3.125 g/ha post-emergence): 30% | LOLPE percentage phytotoxicity (Lolium perenne (LOLPE); 6.25 g/ha post-emergence): 43% | LOLPE percentage phytotoxicity (Lolium perenne (LOLPE); 12.5 g/ha post-emergence): 55% | LOLPE percentage phytotoxicity (Lolium perenne (LOLPE); 25 g/ha post-emergence): 70% | LOLPE percentage phytotoxicity (Lolium perenne (LOLPE); 50 g/ha post-emergence): 75% | Observed phytotoxicity LOLPE (Lolium perenne (LOLPE); 6.25 g/ha post-emergence): 43% | Observed phytotoxicity LOLPE (Lolium perenne (LOLPE); 12.5 g/ha post-emergence): 55% | SETFA percentage phytotoxicity (Setaria faberi (SETFA); 3.125 g/ha post-emergence): 66% | SETFA percentage phytotoxicity (Setaria faberi (SETFA); 6.25 g/ha post-emergence): 68% | SETFA percentage phytotoxicity (Setaria faberi (SETFA); 12.5 g/ha post-emergence): 70% | SETFA percentage phytotoxicity (Setaria faberi (SETFA); 25 g/ha post-emergence): 74% | SETFA percentage phytotoxicity (Setaria faberi (SETFA); 50 g/ha post-emergence): 73% | Observed phytotoxicity SETFA (Setaria faberi (SETFA); B2.1.3, 25 g/ha post-emergence): 74% | ABUTH percentage phytotoxicity ([4]; 3.125 g/ha post-emergence): 10% | ABUTH percentage phytotoxicity ([4]; 6.25 g/ha post-emergence): 4% | ABUTH percentage phytotoxicity ([4]; 12.5 g/ha post-emergence): 3% | ABUTH percentage phytotoxicity ([4]; 25 g/ha post-emergence): 19% | ABUTH percentage phytotoxicity ([4]; 50 g/ha post-emergence): 18% | Observed phytotoxicity ABUTH ([4]; 6.25 g/ha post-emergence): 4% | Observed phytotoxicity ABUTH ([4]; 12.5 g/ha post-emergence): 3% | Observed phytotoxicity ABUTH ([4]; 25 g/ha post-emergence): 19% | Observed phytotoxicity ABUTH ([4]; 50 g/ha post-emergence): 18% | DIGSA percentage phytotoxicity ([5]; 3.125 g/ha post-emergence): 72% | DIGSA percentage phytotoxicity ([5]; 6.25 g/ha post-emergence): 74% | DIGSA percentage phytotoxicity ([5]; 12.5 g/ha post-emergence): 78% | DIGSA percentage phytotoxicity ([5]; 25 g/ha post-emergence): 79% | DIGSA percentage phytotoxicity ([5]; 50 g/ha post-emergence): 80% | AMARE percentage phytotoxicity ([6]; 3.125 g/ha post-emergence): 4% | AMARE percentage phytotoxicity ([6]; 6.25 g/ha post-emergence): 6% | AMARE percentage phytotoxicity ([6]; 12.5 g/ha post-emergence): 10% | AMARE percentage phytotoxicity ([6]; 25 g/ha post-emergence): 21% | AMARE percentage phytotoxicity ([6]; 50 g/ha post-emergence): 31% | Observed phytotoxicity AMARE ([6]; B2.1.5, 6.25 g/ha post-emergence): 6%

From patent US20230389548A1, “MIXTURES OF PYRIMIDINES AS HERBICIDAL COMPOSITIONS” (SYNGENTA CROP PROTECTION AG, priority 2020, published 2023)
